In this test the target is T1, His6-PDK1 (aa 52-556) (Homo sapiens, UniProt O15530).
T1 construct: 15 μL His6-PDK1 (aa 52-556) 3.33 ng/well); host or cells: baculovirus-infected insect cells
T1 sequence (O15530 52-556): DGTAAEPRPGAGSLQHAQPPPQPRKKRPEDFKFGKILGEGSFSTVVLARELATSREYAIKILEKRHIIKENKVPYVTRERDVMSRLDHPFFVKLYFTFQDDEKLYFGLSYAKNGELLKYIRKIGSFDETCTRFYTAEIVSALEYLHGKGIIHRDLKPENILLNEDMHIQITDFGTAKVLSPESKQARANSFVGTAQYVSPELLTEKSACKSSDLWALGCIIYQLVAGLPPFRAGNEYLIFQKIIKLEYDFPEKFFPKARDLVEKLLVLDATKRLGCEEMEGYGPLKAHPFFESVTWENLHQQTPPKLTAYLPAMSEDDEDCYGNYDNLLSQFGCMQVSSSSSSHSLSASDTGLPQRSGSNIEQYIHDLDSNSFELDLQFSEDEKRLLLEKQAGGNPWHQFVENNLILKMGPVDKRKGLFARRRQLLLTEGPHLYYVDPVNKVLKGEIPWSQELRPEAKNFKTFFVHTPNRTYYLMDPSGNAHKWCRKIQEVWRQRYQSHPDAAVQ
As to the kind of experiment: PDK1 kinase assay III (with Tween 20). In kind it is biochemical. The conditions noted are these: compound at 10 μM; PDK1 kinase assay III (values without asterisk); read-out: % CTL (residual activity of the enzyme relative to DMSO control). In short, it runs like this:
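Started with ATP, incubated 90 min at ambient temperature, then stopped with phosphoric acid. Asterisked values come from assay II (24 h or 5 min incubation).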

Turning to `Cc1c(/C=C/CNC(=O)c2c(C)n(C)n(Cc3ccc(F)c(F)c3)c2=O)c(=O)n(C(C)C)c2nc(Nc3ccc(N4CCOCC4)cc3)ncc12` [IV-37, 2-(3,4-difluorobenzyl)-1,5-dimethyl-N-{(2E)-3-[5-methyl-2-{[4-(morpholin-4-yl)phenyl]amino}-7-oxo-8-(propane-2-yl)-7,8-dihydropyrido[2,3-c]pyrimidin-6-yl]prop-2-en-1-yl}-3-oxo-2,3-dihydro-1H-pyrazole-4-carboxamide], the remaining activity at 10 µM was 15.4%.

As for `Cc1c(/C=C/CNC(=O)c2cncn(Cc3ccc(F)c(F)c3)c2=O)c(=O)n(C(C)C)c2nc(Nc3ccc(N4CCOCC4)cc3)ncc12` [IV-38, 1-(3,4-difluorobenzyl)-N-{(2E)-3-[5-methyl-2-{[4-(morpholin-4-yl)phenyl]amino}-7-oxo-8-(propane-2-yl)-7,8-dihydropyrido[2,3-d]pyrimidin-6-yl]prop-2-en-1-yl}-6-oxo-1,6-dihydropyrimidine-5-carboxamide], the remaining activity at 10 µM is 11.8%.

Consider `CN(C)Cc1ccc(Nc2ncc3cc(/C=C/CNC(=O)c4cc(Cl)nn(Cc5ccc(F)c(F)c5)c4=O)ccc3n2)cc1` [IV-39, 6-chloro-2-(3,4-difluorobenzyl)-N-{(2E)-3-[2-({4-[(dimethylamino)methyl]phenyl}amino)quinazolin-6-yl]prop-2-en-1-yl}-3-oxo-2,3-dihydropyridazine-4-carboxamide], for which the remaining activity at 10 µM turned out to be 17.9%.

Regarding `O=C(NCc1ccc(-c2cnc3[nH]ccc3c2)s1)c1cncn(Cc2ccc(F)c(F)c2)c1=O` [IV-41, 1-(3,4-difluorobenzyl)-6-oxo-N-{[5-(1H-pyrrolo[2,3-b]pyridin-5-yl)thiophen-2-yl]methyl}-1,6-dihydropyrimidine-5-carboxamide], the remaining activity at 10 µM worked out at 24.4%.

For `Cc1c(C(=O)NCc2ccc(-c3cnc4[nH]ccc4c3)s2)c(=O)n(Cc2ccc(F)c(F)c2)n1C` [IV-42, 2-(3,4-difluorobenzyl)-1,5-dimethyl-3-oxo-N-{[5-(1H-pyrrolo[2,3-b]pyridin-5-yl)thiophen-2-yl]methyl}-2,3-dihydro-1H-pyrazole-4-carboxamide], the remaining activity at 10 µM is 27.7%.

Turning to `CN1CCC(Nc2ccc(Nc3ncc4cc(/C=C/CNC(=O)c5cn(C)c(=O)n(Cc6ccc(F)c(F)c6)c5=O)ccc4n3)cc2F)CC1` [IV-43, 3-(3,4-difluorobenzyl)-N-{(2E)-3-[2-({3-fluoro-4-[(1-methylpiperidin-4-yl)amino]-phenyl}amino)quinazolin-6-yl]prop-2-en-1-yl}-1-methyl-2,4-dioxo-1,2,3,4-tetrahydro-pyrimidine-5-carboxamide], the remaining activity at 10 µM turned out to be 17.3%.

In the case of `CN1CCC(N(C)c2ccc(Nc3ncc4cc(/C=C/CNC(=O)c5cn(C)c(=O)n(Cc6ccc(F)c(F)c6)c5=O)ccc4n3)cc2)CC1` [IV-44, 3-(3,4-difluorobenzyl)-1-methyl-N-{(2E)-3-[2-({4-[methyl(1-methylpiperidin-4-yl)amino]phenyl}amino)quinazolin-6-yl]prop-2-en-1-yl}-2,4-dioxo-1,2,3,4-tetrahydro-pyrimidine-5-carboxamide], the remaining activity at 10 µM was found to be 16.3%.

For `CN1CCC(N(C)c2ccc(Nc3ncc4cc(/C=C/CNC(=O)c5cncn(Cc6ccc(F)c(F)c6)c5=O)ccc4n3)cc2)CC1` [IV-45, 1-(3,4-difluorobenzyl)-N-{(2E)-3-[2-({4-[methyl(1-methylpiperidin-4-yl)amino]-phenyl}amino)quinazolin-6-yl]prop-2-en-1-yl}-6-oxo-1,6-dihydropyrimidine-5-carboxamide], the remaining activity at 10 µM is 15.3%.

Take `CN1CCC(Nc2ccc(Nc3ncc4cc(/C=C/CNC(=O)c5cncn(Cc6ccc(F)c(F)c6)c5=O)ccc4n3)cc2F)CC1` [IV-46, 1-(3,4-difluorobenzyl)-N-{(2E)-3-[2-({3-fluoro-4-[(1-methylpiperidin-4-yl)amino]-phenyl}amino)quinazolin-6-yl]prop-2-en-1-yl}-6-oxo-1,6-dihydropyrimidine-5-carboxamide]: the remaining activity at 10 µM turned out to be 11.9%.

For `Nc1ncc2cc(/C=C/CNC(=O)c3cncn(Cc4ccc(F)c(F)c4)c3=O)ccc2n1` [IV-48, N-[(2E)-3-(2-aminoquinazolin-6-yl)prop-2-en-1-yl]-1-(3,4-difluorobenzyl)-6-oxo-1,6-dihydropyrimidine-5-carboxamide], the remaining activity at 10 µM was determined as 24.4%.

For `CN1CCC(N(C)c2ccc(Nc3ncc4cc(/C=C/CNC(=O)c5nccn(Cc6ccc(F)c(F)c6)c5=O)ccc4n3)cc2)CC1` [IV-49, 4-(3,4-difluorobenzyl)-N-{(2E)-3-[2-({4-[methyl(1-methylpiperidin-4-yl)amino]-phenyl}amino)quinazolin-6-yl]prop-2-en-1-yl}-3-oxo-3,4-dihydropyrazine-2-carboxamide], the remaining activity at 10 µM stood at 13.5%.

Regarding `CN1CCC(Nc2ccc(Nc3ncc4cc(/C=C/CNC(=O)c5nccn(Cc6ccc(F)c(F)c6)c5=O)ccc4n3)cc2F)CC1` [IV-50, 4-(3,4-difluorobenzyl)-N-{(2E)-3-[2-({3-fluoro-4-[(1-methylpiperidin-4-yl)amino]-phenyl}amino)quinazolin-6-yl]prop-2-en-1-yl}-3-oxo-3,4-dihydropyrazine-2-carboxamide], the remaining activity at 10 µM worked out at 11.6%.

For `CN(C)Cc1ccc(Nc2ncc3cc(/C=C/CNC(=O)c4ccnn(Cc5ccc(F)c(F)c5)c4=O)ccc3n2)cc1` [IV-51, 2-(3,4-difluorobenzyl)-N-{(2E)-3-[2-({4-[(dimethylamino)methyl]phenyl}-amino)quinazolin-6-yl]prop-2-en-1-yl}-3-oxo-2,3-dihydropyridazine-4-carboxamide], the remaining activity at 10 µM turned out to be 14.5%.

In the case of `CN1CCC(N(C)c2ccc(Nc3ncc4cc(/C=C/CNC(=O)c5ccnn(Cc6ccc(F)c(F)c6)c5=O)ccc4n3)cc2)CC1` [IV-52, 2-(3,4-difluorobenzyl)-N-{(2E)-3-[2-({4-[methyl(1-methylpiperidin-4-yl)amino]-phenyl}amino)quinazolin-6-yl]prop-2-en-1-yl}-3-oxo-2,3-dihydropyridazine-4-carboxamide], the remaining activity at 10 µM came out at 17.2%.

Turning to `CCOC(=O)c1ccc(Nc2ncc3cc(/C=C/CNC(=O)c4cncn(Cc5ccc(F)c(F)c5)c4=O)ccc3n2)cc1` [IV-53, ethyl-4-({6-[(1E)-3-({[1-(3,4-difluorobenzyl)-6-oxo-1,6-dihydropyrimidin-5-yl]carbonyl}amino)prop-1-en-1-yl]quinazolin-2-yl}amino)benzoate], the remaining activity at 10 µM was found to be 33.4%.

`Cc1c(C(=O)NC/C=C/c2ccc3nc(Nc4ccc(N(C)C5CCN(C)CC5)cc4)ncc3c2)c(=O)n(Cc2ccc(F)c(F)c2)n1C` [IV-54, 2-(3,4-difluorobenzyl)-1,5-dimethyl-N-{(2E)-3-[2-({4-[methyl(1-methylpiperidin-4-yl)amino]phenyl}amino)quinazolin-6-yl]prop-2-en-1-yl}-3-oxo-2,3-dihydro-1H-pyrazole-4-carboxamide]: the remaining activity at 10 µM was 16.6%.

As to `Cc1c(C(=O)NC/C=C/c2ccc3nc(Nc4ccc(NC5CCN(C)CC5)c(F)c4)ncc3c2)c(=O)n(Cc2ccc(F)c(F)c2)n1C` [IV-55, 2-(3,4-difluorobenzyl)-N-{(2E)-3-[2-({3-fluoro-4-[(1-methylpiperidin-4-yl)amino]-phenyl}amino)quinazolin-6-yl]prop-2-en-1-yl}-1,5-dimethyl-3-oxo-2,3-dihydro-1H-pyrazole-4-carboxamide], the remaining activity at 10 µM amounted to 16.5%.

With `O=C(NC/C=C/c1ccc2ncncc2c1)c1cncn(Cc2ccc(F)c(F)c2)c1=O` [IV-56, 1-(3,4-difluorobenzyl)-6-oxo-N-[(2E)-3-(quinazolin-6-yl)prop-2-en-1-yl]-1,6-dihydropyrimidine-5-carboxamide], the remaining activity at 10 µM was 18.8%.

Turning to `Cc1c(C(=O)NC/C=C/c2ccc3ncncc3c2)c(=O)n(Cc2ccc(F)c(F)c2)n1C` [IV-57, 2-(3,4-difluorobenzyl)-1,5-dimethyl-3-oxo-N-[(2E)-3-(quinazolin-6-yl)prop-2-en-1-yl]-2,3-dihydro-1H-pyrazole-4-carboxamide], the remaining activity at 10 µM turned out to be 35.5%.

For `Cc1c(C(=O)NCC#Cc2cc3cnc(Nc4ccc(N5CCOCC5)cc4)nc3n(C(C)C)c2=O)c(=O)n(Cc2ccc(F)c(F)c2)n1C` [IV-58, 2-(3,4-difluorobenzyl)-1,5-dimethyl-N-{3-[2-{[4-(morpholin-4-yl)phenyl]amino}-7-oxo-8-(propane-2-yl)-7,8-dihydropyrido[2,3-c]pyrimidin-6-yl]prop-2-yn-1-yl}-3-oxo-2,3-dihydro-1H-pyrazole-4-carboxamide], the remaining activity at 10 µM amounted to 14.6%.

Take `CC(C)n1c(=O)c(C#CCNC(=O)c2cncn(Cc3ccc(F)c(F)c3)c2=O)cc2cnc(Nc3ccc(N4CCOCC4)cc3)nc21` [IV-59, 1-(3,4-difluorobenzyl)-N-{3-[2-{[4-(morpholin-4-yl)phenyl]amino}-7-oxo-8-(propane-2-yl)-7,8-dihydropyrido[2,3-c]pyrimidin-6-yl]prop-2-yn-1-yl}-6-oxo-1,6-dihydropyrimidine-5-carboxamide]: the remaining activity at 10 µM was 12.9%.

These data come from patent publication US20110313156A1 (BOEHRINGER INGELHEIM INTERNATIONAL GMBH, priority 2008, published 2011).
